Marks after values point to notes of the source that are not given here.
What was measured:
[1] = Concentration of ATV and metabolites in monkey bile obtained by BDC and UCC (LC-MS/MS); type: in vivo, cynomolgus macaques; conditions: UCC monkeys, 4‐5 h, 30 mg/kg ATV orally, ± standard deviation
[2] = Metabolite profile of ATV in dog bile (LC-MS, UV 254 nm); type: in vivo, beagle dogs; conditions: based on the UV chromatograms
Method: Dog bile samples obtained by cholecystocentesis were pooled across animals (n = 3). Samples were mixed with an equal volume of citrate buffer (100 mmol/L) to make the final buffer concentration of 50 mmol/L. The mixture was mixed by vortexing for 1 minute and then centrifuged at 12 000× g for 15 minutes. An aliquot (5‐10 μL) of the supernatant was injected onto the UHPLC column for LC‐MS/MS‐based analysis.
The metabolite profile was obtained using LTQ‐Orbitrap coupled with Accela UHPLC and PDA (ThermoScientific, San Jose, CA) and a CTC PAL autosampler equipped with a cooling stack that maintained samples at 4°C during analysis. A 20‐minute UHPLC method was developed. The column was Acquity UPLC HSS T3 (Waters, Milford, MA) 2.1 × 150 mm, 1.8 µm. The column was maintained at a temperature of 55°C. The mobile phase consisted of 0.1% formic acid in water (solvent A) and 0.1% formic acid in acetonitrile (solvent B) at a flowrate of 600 µL/min with the following linear gradient conditions: 5% A for 0.5 minutes, 20‐60% B over 14 minutes, 95% B over 3 minutes, and 5% B isocratic for 2 minutes. Instrument settings were as follows: m/z range: 100 to 1000, capillary temperature was set at 280°C, nitrogen sheath gas flow rate 80 (arbitrary units), auxiliary gas 20, spray voltage 4.0 kV, and tube lens offset 80 V. In addition, UV wavelength was monitored at 254 nm.

[3] = Plasma pharmacokinetics of ATV and metabolites in BDC and UCC monkeys (LC-MS/MS); type: in vivo, cynomolgus macaques; conditions: for Cmax / Tmax / AUC: male, cynomolgus, cynomolgus monkey, plasma, po, 30 mg/kg, 30 mg/kg oral dose of ATV, ± standard deviation; for AUC: read-out: AUC0‐24h; for plasma concentration: both the UCC and BDC monkey plasma samples, 30 mg/kg ATV orally
Method: (§1) Plasma and bile samples were collected. For bile collection monkeys were sedated with ketamine (8 mg/kg) and dexmedetomidine (0.05 mg/kg) intramuscularly. At the conclusion of the procedure, sedation was reversed with atipamezole (0.15 mg/kg) intramuscularly. All other procedures were the same as for the dog.
(§2) Plasma samples were collected from dogs and monkeys at 0.5, 1, 2, 4, 6, and 24 hours postdose. Bile samples were collected at 0‐2 hours, 2‐4 hours, 4‐6 hours, 6‐8 hours, and 8‐24 hours intervals. Both plasma and bile samples were stored at −20°C until analysis.
(§3) Standard curves and quality control (QC) samples defining the dynamic range of the bioanalytical method were prepared in commercially available control plasma and processed in the same fashion as the test samples. When dilutions were required, an aliquot of the sample was diluted into control plasma. […] The supernatant was then separated from the precipitated proteins after a 10‐minute centrifugation at 3500 rpm (2109× g) at 10°C and transferred to an autosampler 96‐well plate. An aliquot (10 µL) was injected onto the ultrahigh performance liquid chromatography (UHPLC) column for LC‐MS/MS‐based analysis. Samples from individual animals were not pooled prior to quantitative analysis.
(§4) The UHPLC system Nexera (Shimadzu, Japan) consisted of two pumps (LC30AD), a column heater (CTO‐30A), and an autosampler (SIL‐30AC) equipped with a cooling compartment that maintained samples at 15°C during analysis. The analytical column used was a BEH C18 2.1 mm × 50 mm, 1.7 µm (Waters Corporation, Milford, MA) at 50°C. The mobile phase, which consisted of 0.1% formic acid in water (A) and acetonitrile (B), was delivered at a flow rate of 0.6 mL/min. The initial conditions were 100% aqueous followed by 1‐minute gradient to 100% acetonitrile then hold for 0.4 minutes and back to initial conditions.
(§5) The UHPLC was interfaced to a Finnigan TSQ Quantum Ultra LC‐MS/MS tandem mass spectrometer (Thermo Electron Corporation) equipped with heated electrospray ionization (HESI‐II) interface operating in the positive ionization mode. Ultrahigh‐purity nitrogen was used as the sheath and auxiliary gases at flow rates of 55 L/h for sheath and 25 L/h for auxiliary. The desolvation temperature was 300°C and the source temperature was 350°C. The detection of each analyte was achieved through selected reaction monitoring. […]
(§6) The peak concentration (Cmax) and time for Cmax (Tmax) were recorded directly from experimental observations. The area under the curve from time 0 to 24 hours (AUC0‐24h) was calculated using a combination of linear and log trapezoidal summations.

[4] = Plasma pharmacokinetics of ATV and metabolites in BDC and UCC dogs (LC-MS/MS); type: in vivo; conditions: male, beagle, dog, po, 40 mg/kg, 40 mg/kg oral dose of ATV, ± standard deviation; for AUC: read-out: AUC0‐24h
Method: (§7) Plasma samples were collected at 0.5, 1, 2, 4, 6, and 24 hours postdose via cephalic vein or indwelling cephalic catheter. At the 6‐ and 24‐hours postdose time points, dogs were sedated with propofol at 6 mg/kg through an indwelling cephalic catheter. The dogs were then positioned in a dorsal‐recumbency with head elevated. Heart rate, rhythm, and arterial oxygen saturation were monitored throughout the procedure. After shaving and aseptically preparing the abdominal skin immediately caudal to the xiphoid process, an ultrasound exam of the gallbladder and cranial abdomen was done using a Mylab30cv ultrasound system with 9‐3 MHz micro‐convex transducer (Esoate, Indianapolis, IN). A 21‐gauge, 1.5‐inch needle, attached to a 5‐mL syringe, was inserted percutaneously through the abdominal wall into the gallbladder lumen. Effort was made to completely empty the gallbladder by aspiration (typically, 2‐5 mL bile was obtained). The needle and syringe were withdrawn and the bile samples were immediately saved on dry ice for later analysis. Dogs were allowed to recover in their home cages. Both plasma and bile samples were stored at −20°C until analysis.
as §2, §3, §4, §5, §6

[5] = Concentration of ATV and metabolites in monkey bile obtained by BDC and UCC (LC-MS/MS); type: in vivo, cynomolgus macaques; conditions: for Concentration in bile: BDC monkeys, 30 mg/kg ATV orally; for concentration at 24 h: male, cynomolgus, cynomolgus monkey, bile, po, 30 mg/kg
Method: as §1, §2, §3, §4, §5

[6] = Concentration of ATV and metabolites in dog bile obtained by BDC and UCC (LC-MS/MS); type: in vivo, beagle dogs; conditions: for Concentration in bile: BDC dogs, 40 mg/kg ATV orally, ± standard deviation; for concentration at 6 h / concentration at 24 h: male, beagle, dog, bile, po, 40 mg/kg
Method: as §7, §2, §3, §4, §5

[7] = Metabolite profile of ATV in monkey bile (LC-MS, UV 254 nm); type: in vivo, cynomolgus macaques; conditions: UV chromatograms
[8] = 0‐2 h, n = 2 due to blocked/displaced cannulas
[9] = 6‐8 h, n = 2 due to blocked/displaced cannulas

| Concentration in bile [1] | abundance of metabolite in bile [2] | Cmax ([3]; BDC monkeys (n = 4)) | Tmax ([3]; BDC monkeys (n = 4)) | Cmax ([3]; UCC monkeys (n = 3)) | Tmax ([3]; UCC monkeys (n = 3)) | AUC ([3]; BDC monkeys (n = 4)) | AUC ([3]; UCC monkeys (n = 3)) | Cmax ([4]; BDC dogs (n = 3)) | Tmax ([4]; BDC dogs (n = 3)) | AUC ([4]; BDC dogs (n = 3)) | Cmax ([4]; UCC dogs (n = 3)) | Tmax ([4]; UCC dogs (n = 3)) | AUC ([4]; UCC dogs (n = 3)) | Concentration in bile [5, 8] | Concentration in bile ([5]; 2‐4 h, ± standard deviation) | Concentration in bile ([5]; 4‐6 h, ± standard deviation) | Concentration in bile [5, 9] | Concentration in bile ([5]; 8‐24 h, ± standard deviation) | concentration at 24 h [5] | Compound | also measured |
| --- | --- | --- | --- | --- | --- | --- | --- | --- | --- | --- | --- | --- | --- | --- | --- | --- | --- | --- | --- | --- | --- |
| 334 ± 70 µM | major oxidative metabolites | 0.055 ± 0.02 µM | 9 ± 10.1 h | 0.031 ± 0.018 µM | 2 ± 1.7 h | 0.664 ± 0.347 µM·h | 0.057 ± 0.008 µM·h | 0.352 ± 0.28 µM | 2 h | 0.667 ± 0.203 µM·h | 0.215 ± 0.095 µM | 1.7 ± 0.6 h | 0.736 ± 0.066 µM·h | 112 µmol/L | 317 ± 66 µmol/L | 412 ± 302 µmol/L | 306 µmol/L | 303 ± 151 µmol/L | 586 ± 127 µM | CC(C)c1c(C(=O)Nc2ccccc2O)c(-c2ccccc2)c(-c2ccc(F)cc2)n1CC[C@@H](O)C[C@@H](O)CC(=O)O [2‐OH ATV, 2‐hydroxyatorvastatin] | Concentration in bile ([6]; 0‐2 h): 256 ± 284 µM; Concentration in bile ([6]; 2‐4 h): 690 ± 296 µM; Concentration in bile ([6]; 4‐6 h): 337 ± 266 µM; Concentration in bile ([6]; 6‐8 h): 168 ± 134 µM; Concentration in bile ([6]; 8‐24 h): 27 ± 19 µM; concentration at 6 h [6]: 151 ± 53 µM; concentration at 24 h [6]: 63 ± 65 µM; abundance of metabolite in bile [7]: major oxidative metabolites |
| 73 ± 19 µM | – | 0.024 ± 0.006 µM | 4 ± 1.6 h | 0.039 ± 0.029 µM | 1.3 ± 0.6 h | 0.116 ± 0.045 µM·h | 0.035 ± 0.007 µM·h | – | – | – | – | – | – | 36 µmol/L | 93 ± 57 µmol/L | 67 ± 35 µmol/L | 52 µmol/L | 18 ± 19 µmol/L | 147 ± 44 µM | CC(C)c1c(C(=O)Nc2ccccc2O)c(-c2ccccc2)c(-c2ccc(F)cc2)n1CC[C@@H]1C[C@@H](O)CC(=O)O1 [2‐OH ATV‐L, 2‐hydroxyatorvastatin lactone] | – |
| 271 ± 185 µM | major oxidative metabolites | – | – | – | – | – | – | 0.138 ± 0.12 µM | 2.7 ± 1.2 h | 0.293 ± 0.038 µM·h | 0.082 ± 0.03 µM | 3.3 ± 1.2 h | 0.381 ± 0.128 µM·h | 56 µmol/L | 180 ± 68 µmol/L | 207 ± 116 µmol/L | 140 µmol/L | 181 ± 29 µmol/L | 594 ± 39 µM | CC(C)c1c(C(=O)Nc2ccc(O)cc2)c(-c2ccccc2)c(-c2ccc(F)cc2)n1CC[C@@H](O)C[C@@H](O)CC(=O)O [4‐OH ATV, 4‐hydroxyatorvastatin] | plasma concentration [3]: below the limits of quantitation; Concentration in bile ([6]; 0‐2 h): 501 ± 522 µM; Concentration in bile ([6]; 2‐4 h): 1342 ± 583 µM; Concentration in bile ([6]; 4‐6 h): 862 ± 472 µM; Concentration in bile ([6]; 6‐8 h): 558 ± 356 µM; Concentration in bile ([6]; 8‐24 h): 184 ± 97 µM; concentration at 6 h [6]: 279 ± 60 µM; concentration at 24 h [6]: 262 ± 317 µM; abundance of metabolite in bile [7]: major oxidative metabolites |
| 9 ± 5 µM | – | – | – | – | – | – | – | – | – | – | – | – | – | 2 µmol/L | 6 ± 3 µmol/L | 4 ± 2 µmol/L | 3 µmol/L | 2 ^b μmol/L | 19 ± 3 µM | CC(C)c1c(C(=O)Nc2ccc(O)cc2)c(-c2ccccc2)c(-c2ccc(F)cc2)n1CC[C@@H]1C[C@@H](O)CC(=O)O1 [4‐OH ATV‐L, 4‐hydroxyatorvastatin lactone] | plasma concentration [3]: below the limits of quantitation |

Source: PMC6536413, “Application of ultrasound‐guided cholecystocentesis to the evaluation of the metabolite profiling in bile of dogs and cynomolgus monkeys” (Pharmacology Research & Perspectives, 2019)
